Data as given in patent US7262202B2, “Inhibitors of cyclin dependent kinases as anti-cancer agent” (Cyclacel Limited, priority 2001, dated 2007).
Like-named read-outs stand apart in the source and are kept apart here.

Columns and labels:
human tumour cell lines = test: cell-based anti-proliferative assays
Text: These assays, including methods for their performance, are described in more detail in Example 3. Using such cell line and enzymes assays it may be determined whether a compound is anti-proliferative in the context of the present invention.
(§1) Selected compounds from the above examples were subjected to a standard cellular proliferation assay using a range of different human tumour cell lines. Standard 72-h MTT (thiazolyl blue; 3-[4,5-dimethylthiazol-2-yl]-2,5-diphenyltetrazolium bromide) assays were performed (Haselsberger, K.; Peterson, D. C.; Thomas, D. G.; Darling, J. L. Anti Cancer Drugs 1996, 7, 331–8; Loveland, B. E.; Johns, T. G.; Mackay, I. R.; Vaillant, F.; Wang, Z. X.; Hertzog, P. J. Biochemistry International 1992, 27, 501–10). Human tumour cell lines were obtained from the ATCC (American Type Culture Collection, 10801 University Boulevard, Manessas, Va. 20110-2209, USA).

[1] = 72-h MTT cellular proliferation assay, IMR90; type: cell-based; details: human, IMR90 cells (non-transformed); non-transformed cell line IMR90, 72-h MTT; read-out: Cytotoxicity (IC50, μM) IMR90
Method: as §1

CDK2/cyclin E = target: T1, CDK2/cyclin E (Homo sapiens, UniProt P24941); test: CDK2/Cyclin E kinase assay (GST-Rb phosphorylation, radiolabelled ATP); type: biochemical;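 further: enzyme was His-tagged CDK2/cyclin E co-expressed in baculovirus-infected Sf9 insect cells and purified over a metal-chelate column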
T1 construct: His; made in house; host or cells: Sf9 insect cells (baculovirus)

[2] = 72-h MTT cellular proliferation assay, Hs27; type: cell-based; details: human, Hs27 cells (non-transformed); non-transformed cell line Hs27, 72-h MTT; read-out: Cytotoxicity (IC50, μM) Hs27
Method: as §1

[3] = 72-h MTT cellular proliferation assay, W138; type: cell-based; details: human, W138 cells (non-transformed); non-transformed cell line W138, 72-h MTT; read-out: Cytotoxicity (IC50, μM) W138
Method: as §1

Saos-2 = test: 72-h MTT cellular proliferation assay, Saos-2; type: cell-based; details: human tumour cell line Saos-2, 72-h MTT; read-out: Cytotoxicity (IC50, μM) Saos-2
Text: (§2) Selected compounds from the above examples were subjected to a standard cellular proliferation assay using a range of different human tumour cell lines.

A549 = test: 72-h MTT cellular proliferation assay, A549; type: cell-based; details: human tumour cell line A549, 72-h MTT; read-out: Cytotoxicity (IC50, μM) A549
Text: as §2

HT29 = test: 72-h MTT cellular proliferation assay, HT29; type: cell-based; details: HT-29; human tumour cell line HT29, 72-h MTT; read-out: Cytotoxicity (IC50, μM) HT29
Text: as §2

MCF7 = test: 72-h MTT cellular proliferation assay, MCF7; type: cell-based; details: human tumour cell line MCF7, 72-h MTT; read-out: Cytotoxicity (IC50, μM) MCF7
Text: as §2

HeLa = test: 72-h MTT cellular proliferation assay, HeLa; type: cell-based; details: human tumour cell line HeLa, read-out: Cytotoxicity (IC50, μM) HeLa
Text: as §2

[4] = bound stated, (±0.05), read-out: IC50 for cdk2/cyclinE

In the case of `Cc1[nH]c(C#N)c(C)c1-c1ccnc(Nc2ccc(F)cc2)n1` [Compound 32, 4-[2-(4-Fluoro-phenylamino)-pyrimidin-4-yl]-3,5-dimethyl-1H-pyrrole-2-carbonitrile], the “anti-proliferative activity in cell-based assays” value (from here on “anti-proliferative activity”) (human tumour cell lines) is reported as “particularly effective anti-proliferative agents”, the IC50 at 72 h [1] is reported as 20.8 µM and the IC50 (CDK2/cyclin E; [4]) is reported as under 500 nM. The IC50 at 72 h [2] was 15.1 µM and the IC50 at 72 h [3] was 9.6 µM.
In the case of `Cc1[nH]c(C#N)c(C)c1-c1ccnc(Nc2ccc(C(F)(F)F)cc2)n1` [Compound 34, 3,5-Dimethyl-4-[2-(4-trifluoromethyl-phenylamino)-pyrimidin-4-yl]-H-pyrrole-2-carbonitrile], the “anti-proliferative activity” value (human tumour cell lines) is reported as “particularly effective anti-proliferative agents”, the IC50 (CDK2/cyclin E; [4]) is reported as under 500 nM and the IC50 (Saos-2) is reported as 3.4 µM. The IC50 (A549) was 3.64 µM, the melting point was 195.6 to 198.9 °C and the IC50 (HT29) was 0.95 µM.
In the case of `Cc1[nH]c(C#N)c(C)c1-c1ccnc(Nc2ccc(I)cc2)n1` [Compound 35, 4-[2-(4-Iodo-phenylamino)-pyrimidin-4-yl]-3,5-dimethyl-1H-pyrrole-2-carbonitrile], the “anti-proliferative activity” value (human tumour cell lines) is reported as “particularly effective anti-proliferative agents”, the IC50 at 72 h [1] is reported as 37.3 µM and the IC50 (CDK2/cyclin E; [4]) is reported as under 500 nM. For the same molecule, the IC50 (Saos-2) was 0.75 µM, the IC50 (MCF7) was 0.45 µM and the IC50 (HeLa) was 0.09 µM. The IC50 at 72 h [2] was 35.1 µM, the IC50 (A549) was 0.51 µM and the melting point was 178.3 to 181.2 °C. For the same molecule, the IC50 (HT29) was 0.11 µM and the IC50 at 72 h [3] was 21.3 µM.
In the case of `Cc1ccc(Nc2nccc(-c3c(C)[nH]c(C#N)c3C)n2)cc1I` [Compound 38, 4-[2-(3-Iodo-4-methyl-phenylamino)-pyrimidin-4-yl]-3,5-dimethyl-1H-pyrrole-2-carbonitrile], the “anti-proliferative activity” value (human tumour cell lines) is reported as “particularly effective anti-proliferative agents”, the IC50 (CDK2/cyclin E; [4]) is reported as under 1000 nM and the IC50 (Saos-2) is reported as 3.12 µM. The IC50 (A549) was 3.6 µM, the melting point was 189.5 to 191.7 °C and the IC50 (HT29) was 0.72 µM.
With `Cc1cc(Nc2nccc(-c3c(C)[nH]c(C#N)c3C)n2)ccc1Cl` [Compound 39, 4-[2-(4-Chloro-3-methyl-phenylamino)-pyrimidin-4-yl]-3,5-dimethyl-1H-pyrrole-2-carbonitrile] the “anti-proliferative activity” value (human tumour cell lines) was “particularly effective anti-proliferative agents”, the IC50 (CDK2/cyclin E; [4]) was under 1000 nM and the IC50 (CDK2/cyclin E; read-out: CDK2/cyclin E (IC50)) was 1020 nM. The IC50 (Saos-2) was 5.88 µM, the IC50 (A549) was 4.37 µM and the melting point was 194.2 to 197.9 °C. It also gave an IC50 (HT29) of 3.27 µM.
With `Cc1ccc(Nc2nccc(-c3c(C)[nH]c(C#N)c3C)n2)cc1F` [Compound 42, 4-[2-(3-Fluoro-4-methyl-phenylamino)-pyrimidin-4-yl]-3,5-dimethyl-1H-pyrrole-2-carbonitrile] the “anti-proliferative activity” value (human tumour cell lines) was “particularly effective anti-proliferative agents”, the IC50 (CDK2/cyclin E; [4]) was under 1000 nM and the IC50 (Saos-2) was 2.23 µM. The IC50 (A549) was 1.49 µM, the melting point was 177.7 to 179.9 °C and the IC50 (HT29) was 0.28 µM.
With `Cc1[nH]c(C#N)c(C)c1-c1ccnc(Nc2ccc(N(C)C)cc2)n1` [Compound 43, 4-[2-(4-Dimethylamino-phenylamino)-pyrimidin-4-yl]-3,5-dimethyl-1H-pyrrole-2-carbonitrile] the “anti-proliferative activity” value (human tumour cell lines) was “particularly effective anti-proliferative agents”, the IC50 (CDK2/cyclin E; [4]) was under 1000 nM and the IC50 (Saos-2) was 1.5 µM. The IC50 (A549) was 1.41 µM, the melting point was 190.6 to 193.7 °C and the IC50 (HT29) was 0.17 µM.
In the case of `Cc1[nH]c([N+](=O)[O-])c(C)c1-c1ccnc(Nc2ccc(N(C)C)cc2)n1` [Compound 48, N-[4-(2,4-Dimethyl-5-nitro-1H-pyrrol-3-yl)-pyrimidin-2-yl]-N′,N′-dimethyl-benzene-1,4-diamine], the “anti-proliferative activity” value (human tumour cell lines) is reported as “particularly effective anti-proliferative agents”, the IC50 (CDK2/cyclin E; [4]) is reported as under 1000 nM and the IC50 (Saos-2) is reported as 2.65 µM. The IC50 (A549) was 3.05 µM, the melting point was 265 to 268 °C and the IC50 (HT29) was 0.61 µM.
For `Cc1[nH]c(Br)c(C)c1-c1ccnc(Nc2cccc([N+](=O)[O-])c2)n1` [Compound 51, [4-(5-Bromo-2,4-dimethyl-1H-pyrrol-3-yl)-pyrimidin-2-yl]-(3-nitro-phenyl)-amine], the “anti-proliferative activity” value (human tumour cell lines) was “particularly effective anti-proliferative agents”, the IC50 (CDK2/cyclin E; [4]) was under 500 nM and the IC50 (Saos-2) was 12.4 µM. It also gave an IC50 (A549) of 7.56 µM, a melting point of 198.1 to 203 °C and an IC50 (HT29) of 2.92 µM.
For `Cc1[nH]c(CN(C)C)c(C)c1-c1ccnc(Nc2ccc(F)cc2)n1` [Compound 54, [4-(5-Dimethylaminomethyl-2,4-dimethyl-1H-pyrrol-3-yl)-pyrimidin-2-yl]-(4-fluoro-phenyl)-amine], the “anti-proliferative activity” value (human tumour cell lines) was “particularly effective anti-proliferative agents”, the IC50 (CDK2/cyclin E; [4]) was under 500 nM and the IC50 (Saos-2) was 0.7 µM. It also gave an IC50 (A549) of 2.76 µM, a melting point of 88.4 to 91.6 °C and an IC50 (HT29) of 3.2 µM.
